Measured values from the supplement of paper PMC11962398.

Assays:
BI-2493 [1] = compound: T1, C[C@H]1CNCCN1c1nccc(-c2noc3c2CCC[C@@]32CCCc3sc(N)c(C#N)c32)n1 [BI-2493]; details: 5 days
Procedure: (§1)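 PRISM pooled barcoded cancer cell line viability screen (Broad Institute) with BI-2493 at 8 doses in threefold dilutions from 0.00457 to 10 µmol/L, 5-day treatment; curves fitted per cell line. IC50 is undefined (placeholder) for resistant lines. AUC is capped at 1, and sensitivity is reported as 1 − AUC.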

BI-2493 [2] = compound: T1, BI-2493; experiment: 1 - AUC of viability dose-response curve (sensitivity) (fraction); higher = more sensitive; details: 5 days
Procedure: as §1

Test System	IC50 of cell viability (BI-2493 [1]) [µM]	1 - AUC of viability dose-response curve (BI-2493 [2])
HT_HAEMATOPOIETIC_AND_LYMPHOID_TISSUE	6.79	0.104
HUG1N_STOMACH	0.544	0.393
HUH1_LIVER	4.85	0.0866
HUH6_LIVER	6.78	0.0714
HUH7_LIVER	8.94	0.0355
HUH28_BILIARY_TRACT	9.21	0.0149
HUO9_BONE	9.56	0.0106
HUPT3_PANCREAS	5.16	0.182
HUPT4_PANCREAS	3.9	0.147
IALM_LUNG	1.56	0.317
ICC4_BILIARY_TRACT	3.75	0.184
ICC8_BILIARY_TRACT	7.67	0.185
ICC9_BILIARY_TRACT	4.52	0.225
ICC10_BILIARY_TRACT	9.23	0.0142
ICC12_BILIARY_TRACT	4.21	0.0946
ICC137_BILIARY_TRACT	7.76	0.116
IGR1_SKIN	7.02	0.0813
IGR37_SKIN	8.82	0.111
IGR39_SKIN	5.87	0.0609
IGROV1_OVARY	8.03	0.205
IHH4_THYROID	7.16	0.0625
IM95_STOMACH	4.31	0.152
IPC298_SKIN	4.47	0.0978
ISHIKAWAHERAKLIO02ER_ENDOMETRIUM	6.65	0.174

Test System	IC50 of cell viability (BI-2493 [1]) [µM]	1 - AUC of viability dose-response curve (BI-2493 [2])
ISTMES1_PLEURA	8.84	0.0873
J82_URINARY_TRACT	5.23	0.122
JAR_PLACENTA	3.54	0.242
JEKO1_HAEMATOPOIETIC_AND_LYMPHOID_TISSUE	5.06	0.0886
JHH4_LIVER	6.96	0.071
JHH5_LIVER	0.387	0.297
JHH6_LIVER	4.43	0.0848
JHH7_LIVER	1.67	0.27
JHOC5_OVARY	5.69	0.139
JHOM1_OVARY	4.83	0.119
JHOS2_OVARY	9.64	0.0182
JHUEM7_ENDOMETRIUM	5.02	0.101
JIMT1_BREAST	5.98	0.115
JL1_PLEURA	> 10	0.13
JMSU1_URINARY_TRACT	> 10	0.00212
JOPACA1_PANCREAS	4.96	0.107
JR_SOFT_TISSUE	1.44	0.275
JURLMK1_HAEMATOPOIETIC_AND_LYMPHOID_TISSUE	3.42	0.169
JVM3_HAEMATOPOIETIC_AND_LYMPHOID_TISSUE	9.45	0.105
K029AX_SKIN	7.21	0.058
K562_HAEMATOPOIETIC_AND_LYMPHOID_TISSUE	7.18	0.0609
KALS1_CENTRAL_NERVOUS_SYSTEM	9.22	0.0195
KARPAS620_HAEMATOPOIETIC_AND_LYMPHOID_TISSUE	0.866	0.326
KARPAS1718_HAEMATOPOIETIC_AND_LYMPHOID_TISSUE	4.87	0.0894

Test System	IC50 of cell viability (BI-2493 [1]) [µM]	1 - AUC of viability dose-response curve (BI-2493 [2])
KATOIII_STOMACH	4.3	0.183
KCL22_HAEMATOPOIETIC_AND_LYMPHOID_TISSUE	6.3	0.193
KD_SOFT_TISSUE	3.6	0.114
KE37_HAEMATOPOIETIC_AND_LYMPHOID_TISSUE	6.5	0.0832
KE39_STOMACH	1.55	0.351
KE97_STOMACH	> 10	0.00627
KELLY_AUTONOMIC_GANGLIA	4.09	0.101
KHM1B_HAEMATOPOIETIC_AND_LYMPHOID_TISSUE	3.77	0.106
KKU055_BILIARY_TRACT	8.47	0.156
KKU100_BILIARY_TRACT	2.61	0.182
KKU213_BILIARY_TRACT	4.97	0.12
KLE_ENDOMETRIUM	4.68	0.0854
KMCH1_BILIARY_TRACT	9.41	0.013
KMH2_HAEMATOPOIETIC_AND_LYMPHOID_TISSUE	9.96	0.00616
KMRC1_KIDNEY	8.1	0.0333
KMRC3_KIDNEY	7	0.0597
KMRC20_KIDNEY	4.73	0.185
KMS11_HAEMATOPOIETIC_AND_LYMPHOID_TISSUE	3.13	0.272
KMS12BM_HAEMATOPOIETIC_AND_LYMPHOID_TISSUE	3.71	0.108
KMS18_HAEMATOPOIETIC_AND_LYMPHOID_TISSUE	5.38	0.13
KMS21BM_HAEMATOPOIETIC_AND_LYMPHOID_TISSUE	9.51	0.0119
KMS27_HAEMATOPOIETIC_AND_LYMPHOID_TISSUE	9	0.028
KMS28BM_HAEMATOPOIETIC_AND_LYMPHOID_TISSUE	9.91	0.00817
KNS42_CENTRAL_NERVOUS_SYSTEM	6.04	0.0979

Test System	IC50 of cell viability (BI-2493 [1]) [µM]	1 - AUC of viability dose-response curve (BI-2493 [2])
KNS60_CENTRAL_NERVOUS_SYSTEM	9.53	0.0228
KNS62_LUNG	1.79	0.271
KNS81_CENTRAL_NERVOUS_SYSTEM	6.64	0.0832
KON_UPPER_AERODIGESTIVE_TRACT	3.51	0.189
KOSC2CL343_UPPER_AERODIGESTIVE_TRACT	5.69	0.0719
KP3_PANCREAS	6.52	0.133
KP4_PANCREAS	4.92	0.189
KPNYN_AUTONOMIC_GANGLIA	> 10	0.144
KS1_CENTRAL_NERVOUS_SYSTEM	7.63	0.0533
KU1919_URINARY_TRACT	9.28	0.0267
KURAMOCHI_OVARY	> 10	0.129
KYM1_SOFT_TISSUE	3.79	0.117
KYO1_HAEMATOPOIETIC_AND_LYMPHOID_TISSUE	9.93	0.00435
KYSE70_OESOPHAGUS	5.15	0.163
KYSE140_OESOPHAGUS	> 10	0.0648
KYSE150_OESOPHAGUS	3.68	0.131
KYSE180_OESOPHAGUS	7.63	0.0499
KYSE270_OESOPHAGUS	5.56	0.113
KYSE410_OESOPHAGUS	3.85	0.15
KYSE510_OESOPHAGUS	5.11	0.22
KYSE520_OESOPHAGUS	4.02	0.136
